According to patent US7094581B2, “Hyaluronan synthases and methods of making and using same” (The Board of Regents of the University of Oklahoma, priority 1998, dated 2006):
Several values for one entry are separate records, joined by “and”; a condition that tells them apart may be missing. Identical values can stand only once. Like-named read-outs stand apart in the source and are kept apart here.

Experiments:
[1] = tested on: seHAS; assay: Effect of sulfhydryl reagents on seHAS activity in E. coli membranes; format: biochemical, Streptococcus equisimilis; conditions: E. coli membranes with seHAS-H6, 4° C. 1 h, 5 mM NEM, 5 mM IAA, 0.5 mM 5,5′-dithiobis-(2-nitrobenzoic acid), 0.05 mM methylmethanethiosulfonate, 10 mM sodium arsenite
Protocol: (§1) SeHAS is the smallest HAS protein (417 amino acids) and contains four Cys residues. […] To explore the possible role of cysteines in the function of HAS, the activities of seHAS and spHAS were assayed in the presence of different sulfhydryl reagents (Table II). […] The inhibition of each HAS by NEM was examined in more detail with respect to time of incubation and NEM concentration (FIG. 2).
(§2) E. coli SURE cells transformed with plasmids containing various seHAS mutants were grown in LB medium with vigorous shaking at 32° C. to A600 ˜0.8 and induced with 1 mM isopropyl-β-thiogalactoside for 3 h. Cells were harvested and membranes were prepared as described previously. The kinetic constants for HAS were determined at 37° C. in 100 μl of 50 mM sodium and potassium phosphate, pH 7.0, with 20 mM MgCl2, 1 mM DTE, 240 μM UDP-GIcUA, 0.7 μM UDP-[^14C]GIcUA and 0.6–1.0 mM UDP-GIcNAc. in 100 μl of 25 mM sodium and potassium phosphate, pH 7, containing 50 mM NaCl, 20 mM MgCl2, 1 mM dithiothreitol, 1 mM UDP-GIcUA, 0.68 μM UDP-GIcUA and 1 mM UDP-GIcNAc. Some assays also contained 0.1 mM EDTA and 20% glycerol (v/v). To initiate the enzyme reaction, ˜0.5–40 μg of membrane protein was added and the mixtures were gently shaken in a MicroMixer X-36 (Tiatec) at 30° C. for 1–2 h. Reactions were terminated by the addition of SDS to a final concentration of 2% (w/v). The incorporation of radioactive [^14C]GIcUA was determined by descending paper chromatography and the Km and Vmax values were determined as described by Tlapak-Simmons et al (1999b). Data were analyzed by the methods of Michaelis-Menton or Hill. Protein content was determined by the method of Bradford using bovine serum albumin as the standard. All Cys-mutant or sulfhydryl-treated seHAS samples were assayed in duplicate or triplicate using two or three independent membrane preparations. […] All enzyme assays were performed under conditions that were linear with respect to time and protein concentration.
(§3) Stock solutions (10–100 mM) of NEM, IAA or other sulfhydryl reagents were made in PBS, pH 7.0. Suspensions of membranes containing seHAS or spHAS were incubated with 0–5 mM of the sulfhydryl reagent at 4° C. and the reactions were stopped by adding DTE to a final concentration of 10 mM. The membranes were then assayed for HAS activity as described above.

[2] = biological target: T1, spHAS (Streptococcus pyogenes serotype M6, UniProt Q5X9A9); assay: Effect of sulfhydryl reagents on spHAS activity in E. coli membranes; format: biochemical; conditions: E. coli membranes with spHAS-H6, 4° C. 1 h, 5 mM NEM, 5 mM IAA, 0.5 mM 5,5′-dithiobis-(2-nitrobenzoic acid), 0.05 mM methylmethanethiosulfonate, 10 mM sodium arsenite
T1 construct: made in house; host or cells: E. coli SURE cells (isolated membranes)
T1 sequence (Q5X9A9 1-419): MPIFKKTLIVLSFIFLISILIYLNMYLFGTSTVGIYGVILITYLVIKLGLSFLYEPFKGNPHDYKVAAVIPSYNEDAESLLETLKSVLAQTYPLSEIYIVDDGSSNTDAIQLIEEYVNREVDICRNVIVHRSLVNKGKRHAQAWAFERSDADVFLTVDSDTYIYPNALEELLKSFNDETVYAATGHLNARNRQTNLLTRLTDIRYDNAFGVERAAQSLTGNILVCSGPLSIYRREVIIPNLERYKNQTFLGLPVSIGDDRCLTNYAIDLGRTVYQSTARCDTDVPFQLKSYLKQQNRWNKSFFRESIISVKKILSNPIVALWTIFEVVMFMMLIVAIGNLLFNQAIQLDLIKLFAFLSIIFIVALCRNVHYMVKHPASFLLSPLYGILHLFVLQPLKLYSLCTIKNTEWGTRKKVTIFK
Protocol: as §1, §2, §3

[3] = tested on: wild-type seHAS; assay: Utilization of UDP-GlcUA and UDP-GlcNAc by wild-type seHAS after NEM or sodium arsenite treatment; format: biochemical, Streptococcus equisimilis; conditions: membranes 4° C. 1 h with 5 mM NEM or 10 mM sodium arsenite
Protocol: FIG. 3. Effect of NEM or sodium arsenite treatment on the utilization of UDP-GIcUA and UDP-GIcNAc by wild-type seHAS. E. coli membranes containing seHAS protein were incubated at 4° C. for 1 h in PBS containing 5 mM NEM or 10 mM Sodium Arsenite (SodArs), and the control membranes were incubated with PBS alone. Michaelis-Menten constants (Km) were calculated from the activities of seHAS at varying concentrations of UDP-GIcUA or UDP-GIcNAc.
Modification of the protein by NEM could affect any one or several of the six discrete functions that HAS must perform in order to synthesize HA. In order to determine if one of the nucleotide-sugar binding sites was affected by NEM, we examined the UDP-GIcUA and UDP-GIcNAc saturation profiles for treated and untreated seHAS (FIG. 3 and Table III).
E. coli SURE cells transformed with plasmids containing various seHAS mutants were grown in LB medium with vigorous shaking at 32° C. to A600 ˜0.8 and induced with 1 mM isopropyl-β-thiogalactoside for 3 h. Cells were harvested and membranes were prepared as described previously. The kinetic constants for HAS were determined at 37° C. in 100 μl of 50 mM sodium and potassium phosphate, pH 7.0, with 20 mM MgCl2, 1 mM DTE, 240 μM UDP-GIcUA, 0.7 μM UDP-[^14C]GIcUA and 0.6–1.0 mM UDP-GIcNAc. in 100 μl of 25 mM sodium and potassium phosphate, pH 7, containing 50 mM NaCl, 20 mM MgCl2, 1 mM dithiothreitol, 1 mM UDP-GIcUA, 0.68 μM UDP-GIcUA and 1 mM UDP-GIcNAc. Some assays also contained 0.1 mM EDTA and 20% glycerol (v/v). To initiate the enzyme reaction, ˜0.5–40 μg of membrane protein was added and the mixtures were gently shaken in a MicroMixer X-36 (Tiatec) at 30° C. for 1–2 h. Reactions were terminated by the addition of SDS to a final concentration of 2% (w/v). The incorporation of radioactive [^14C]GIcUA was determined by descending paper chromatography and the Km and Vmax values were determined as described by Tlapak-Simmons et al (1999b). Data were analyzed by the methods of Michaelis-Menton or Hill. Protein content was determined by the method of Bradford using bovine serum albumin as the standard. All Cys-mutant or sulfhydryl-treated seHAS samples were assayed in duplicate or triplicate using two or three independent membrane preparations. Results are presented as the mean±standard errors. All enzyme assays were performed under conditions that were linear with respect to time and protein concentration. None of the seHAS variant enzymes were unstable under the conditions employed.

CCN1C(=O)C=CC1=O [N-ethylmaleimide]
Inhibition of HAS Activity (% relative to control), seHAS [1]: 70 ± 4.8% | Inhibition of HAS Activity (% relative to control), seHAS ([1]; listed as NEM): ~70% and 60–70% | Inhibition of HAS Activity (% relative to control), spHAS [2]: 60 ± 3.5% | Inhibition of HAS Activity (% relative to control), spHAS ([2]; listed as NEM): 60–70% | Vmax of treated wild-type seHAS, UDP-GlcNAc [3]: 7.3 ± 2.2 nmol/µg/h | Vmax of treated wild-type seHAS, UDP-GlcUA [3]: 7.3 ± 2.2 nmol/µg/h | Km ([3]; read-out: Km for UDP-GlcNAc of treated wild-type seHAS): 82 ± 17 µM | Km ([3]; read-out: Km for UDP-GlcUA of treated wild-type seHAS): 57 ± 5 µM
